Where two headings read alike, the source gives them in different places. Marks after values point to notes of the source that are not given here.
Key:
[1] = Transfer of organic compounds between two MeCN phases through an FC-72 phase (U-tube); assay type: physicochemical; details: two MeCN phases through FC-72, 23° C., 3 days
[2] = between FC-72 and MeOH
[3] = Selective transport of a fluorous-tagged component of a mixture through FC-72 between two acetonitrile phases; assay type: physicochemical
[4] = Transfer of 2a between two organic phases through an FC-72 phase (U-tube); assay type: physicochemical; details: FC-72 stirred 23° C., 3 days
Procedure: 2-(2-Naphtylethanol) 2a (10 mg) was dissolved in an organic solvent (1 ml) and the mixture was put into one side (side A) of U-tube 10 of FIG. 1, in which FC-72 (10 ml) was placed. The other organic solvent was put into the other side (side B) of U-tube 10 and the center phase (FC-72) was stirred (via, for example, magnetic stirring element 130) at 23° C. for 3 days without mixing the interfaces between the organic and FC-72 layers. The weights of each organic phase were measured after evaporation.

[5] = U-tube transport of guest molecules from aqueous S-phase through FC-72 F-phase to basic aqueous P-phase, with or without fluorous transport agent 3b; assay type: physicochemical; details: transport agent 3b about 1 mM in FC-72; S-phase water, P-phase pH 11.5 phosphate buffer; ambient temperature
Procedure: In an illustrative example, several transport experiments were carried out with a variety of guest molecules and fluorous transport agent 3b. The F-phase included transport agent 3b, at about 1 mM in the fluorous solvent FC-72. This F-phase was contacted in a U-tube with a first phase containing various organic compounds in water and a second aqueous phase containing hydroxide ion (pH 11.5 phosphate buffer). After various periods of time at ambient temperature, a portion of the more basic, P-phase was removed and subjected to quantitative analysis by UV absorbance spectrophotometry. The measured absorbances were converted to the concentration of each organic compound by the use of a calibration curve. The organic solutes tested were phenobarbital, secobarbital, mephobarbital, thiopental, 2-ethyl, 2-phenylmalonamide, and p-toluenesulfonate. […] The amount of each compound transported (as a fraction of the amount in the S-phase) is plotted versus time. The data points represent behavior of mephobarbital (represented by solid squares), secobarbital (represented by open squares), thiopental (represented by triangles), phenobarbital (represented by diamonds), malonamide and p-toluenesulfonate (both represented by open circles). Each of the barbiturates was transported through the fluorous phase in the presence of transport agent 3b. […]

CC(N)c1cccc2ccccc12 (stereo not shown) [1-(1-naphthyl)ethylamine]
ratio (A/B) [1]: 82/18

CC(O)c1ccc2ccccc2c1 (stereo not shown) [1-(2-naphthyl)ethanol]
ratio (A/B) [1]: 96/4

CC(C)[Si](CCC(F)(F)C(F)(F)C(F)(F)C(F)(F)C(F)(F)C(F)(F)C(F)(F)C(F)(F)F)(OCCc1ccc2ccccc2c1)C(C)C [1a, diisopropyl-1H,1H,2H,2H-perfluorodecanylsilyl 2-naphthylethyl ether]
partition coefficient (FC-72 / CH2Cl2, 23 C): 0.14 | partition coefficient (FC-72 / DMF, 23 C): 0.38 | partition coefficient (FC-72 / EtOH, 23 C): 0.91 | partition coefficient (FC-72 / MeCN, 23 C): 0.74 | partition coefficient (FC-72 / MeOH, 23 C): 0.92 | partition coefficient (FC-72 / THF, 23 C): 0.04 | Kp (partition coefficient) [2]: 0.92

CC(C)[Si](CCC(F)(F)C(F)(F)C(F)(F)C(F)(F)C(F)(F)C(F)(F)F)(OCCc1ccc2ccccc2c1)C(C)C [1c, Diisopropyl-1H,1H,2H,2H-perfluorooctanylsilyl 2-naphthylethyl ether]
Kp (partition coefficient) [2]: 0.39

CC(C)[Si](CCC(F)(F)C(F)(F)C(F)(F)C(F)(F)C(F)(F)C(F)(F)C(F)(F)C(F)(F)F)(O[C@@H](C)c1ccc2ccccc2c1)C(C)C [1f, diisopropyl-1H,1H,2H,2H-perfluorodecanylsilyl (S)-(−)-1-(2-naphthyl)ethyl ether]
Kp (partition coefficient) [2]: 1.5

CC(C)[Si](CCC(F)(F)C(F)(F)C(F)(F)C(F)(F)C(F)(F)C(F)(F)C(F)(F)C(F)(F)F)(OCC=Cc1ccccc1)C(C)C [1g, (3,3,4,4,5,5,5,6,6,7,7,8,8,9,9,10,10,10,10-heptadecafluorodecyl)-diisopropyl(3-phenyl-allyloxy)silane]
Mass of the residue (P-phase) ([3]; P-phase removed at 3 h, 1/1 mixture of 2a and 1g in acetonitrile S-phase): 4.5 mg | Mass of the residue (P-phase) ([3]; P-phase removed at 7 h, fresh acetonitrile after each removal): 6 mg | Mass of the residue (P-phase) ([3]; P-phase removed at 24 h, fresh acetonitrile after each removal): 7 mg | Kp (partition coefficient) [2]: 1.3

CCc1ccc2ccccc2c1 [2-ethylnaphthalene]
ratio (A/B) [1]: 66/33^a

CC(=O)Oc1ccc2ccccc2c1 [2-naphthyl acetate]
ratio (A/B) [1]: 94/6

O=C(O)Cc1ccc2ccccc2c1 [2-naphthylacetic acid]
ratio (A/B) [1]: >99/1

CC(=O)Cc1ccc2ccccc2c1 [2-naphthylacetone]
ratio (A/B) [1]: 91/9

N#CCc1ccc2ccccc2c1 [2-naphthylacetonitrile]
ratio (A/B) [1]: 99/1

OCCc1ccc2ccccc2c1 [2a, 2-(2-naphthyl)ethanol]
presence in P-phase by TLC or 1H NMR ([3]; after 1d, 1/1 mixture with 1g in acetonitrile S-phase): not detected | ratio (A/B) [1]: 99/1 | ratio of 2a (A/B) ([4]; side A MeCN, side B MeCN): 99/1 | ratio of 2a (A/B) ([4]; side A MeCN, side B MeOH): >99/1 | ratio of 2a (A/B) ([4]; side A MeCN, side B THF): >99/1 | ratio of 2a (A/B) ([4]; side A MeOH, side B MeCN): 99/1 | ratio of 2a (A/B) ([4]; side A MeOH, side B MeOH): 99/1 | ratio of 2a (A/B) ([4]; side A MeOH, side B THF): 96/4 | ratio of 2a (A/B) ([4]; side A THF, side B MeOH): 97/3 | ratio of 2a (A/B) ([4]; side A THF, side B THF): 90/10

OCC=Cc1ccccc1 [cinnamyl alcohol]
ratio (A/B) [1]: 99/1

CCCCCCCCCCCCO [dodecanol]
ratio (A/B) [1]: 96/4

N#CCC#N [malononitrile]
ratio (A/B) [1]: >99/1

p-toluenesulfonate
transport through the fluorous phase to the P-phase [5]: no transport

From patent publication US6734318B2, “Fluorous triphase and other multiphase systems” (University of Pittsburgh, priority 2001, dated 2004)
